From patent US10487045B2, “Adamantane derivative and use thereof” (TOHOKU UNIVERSITY, priority 2016, dated 2019)

Experiments:
Kir6.2 channel = molecular target: T1, Kir6.2 channel (Mus musculus, UniProt Q61743); assay: Patch-clamp measurement of outward potassium current in Kir6.2 channel-overexpressing cells; assay type: cell-based; details: 10 nM TP-014, Kir6.2 channel-overexpressing cells, membrane potential changed toward a plus side
T1 construct: expressed in transfected cells; host or cells: Neuro2A (N2A) cells, transient transfection with pcDNA3.1-Kir6.2 (gift of Dr. Toru Ishizuka, Tohoku University)
T1 sequence (Q61743 1-390): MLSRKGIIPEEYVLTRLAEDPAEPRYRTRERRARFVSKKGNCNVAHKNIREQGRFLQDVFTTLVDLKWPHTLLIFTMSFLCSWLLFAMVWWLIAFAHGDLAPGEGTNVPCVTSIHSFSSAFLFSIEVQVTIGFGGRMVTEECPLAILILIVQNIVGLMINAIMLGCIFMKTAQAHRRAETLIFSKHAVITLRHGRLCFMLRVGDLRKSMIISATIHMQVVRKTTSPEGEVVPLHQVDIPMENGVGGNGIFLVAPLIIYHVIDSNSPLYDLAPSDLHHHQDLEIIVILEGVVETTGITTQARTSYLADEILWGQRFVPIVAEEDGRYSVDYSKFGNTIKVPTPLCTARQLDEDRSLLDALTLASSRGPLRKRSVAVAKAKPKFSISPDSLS
Protocol: Using Kir6.2 channel-overexpressing cells obtained in Test Example 1, potassium current flowing outside from the cells was measured by an ordinary patch-clamp method. ATP-sensitive potassium channel (Kir6.2 channel) was localized in the cell membrane of the nerve cells. If the channel is inhibited and closed, the threshold of the nerve cell membrane rises to produce a state analogous to the state where an action potential is temporarily generated, with the result that potassium current flows out from cells outside and, in place, calcium current flows into the cells from outside. […] This was confirmed by applying immunoblotting (the same conditions as in Test Example 1 were employed except that anti-Kir6.2 channel antibody, n=5) with an anti-Kir6.2 channel antibody (prepared based on a customary method) to Kir6.2 channel-overexpressing cells (prepared by the aforementioned method).

APP23 mice = assay: Y-maze method in Alzheimer's disease model mice; assay type: in vivo; details: APP23 mice 12 months old, 1 mg/kg orally once a day for two months
Protocol: To Alzheimer's disease model mice (APP23 mice, Sturchler-Pierrat et al., Proc. Natl. Acad. Sci. U.S.A. 1997, 94, 13287-13292)(12 months old), TP-014 (1 mg/kg) was orally administered once a day for two months (chronic treatment). […] FIGS. 4a-d show the results of behavior analysis. FIG. 4a and FIG. 4b show attentional function analyzed on WT mice (C57BL/6J, Japan SLC) and APP23 mice (n=5 per group) by an ordinary Y-maze method. […] The Y-maze method is a method of allowing mice to freely walk on three arms for 8 minutes. The arms will be provisionally designated as A, B, C, respectively. A mouse positioned on A will move to B or C (arm). […] The arms to which a mouse moved are recorded in chronological order and the number of times a mouse moves to each of the arms within a predetermined time is counted and determined as “total arm entries”. Of them, the number of the right-answer cases (the case where a mouse consecutively chooses three different arms) was counted and determined as the number of alternating behaviors (“No. of alternation”). The ratio of “No. of alternation” to the number obtained by subtracting 2 from the “total arm entries” is expressed as alternation (%) and used as the normal alternate behavior index (spatial working memory correct answer ratio). […]

[1] = tested on: WT mice administered with corticosterone; assay: Anxiety-related behavioral tests (elevated plus-maze, light/dark, marble burying, open field, fear conditioning) in WT mice administered with corticosterone; assay type: in vivo; details: WT mice + corticosterone 5 mg/kg; TP-014 1 mg/kg oral once a day for 2 weeks; all five tests
Protocol: Using WT mice (C57BL/6J, Japan SLC, two months old) administered with corticosterone (dose of 5 mg/kg was administered once a day for 2 weeks); and Kir6.1 defective mice administered with corticosterone, as disease model mice showing anxiety-like symptoms, five behavioral tests regarding anxiety-related behavior were conducted. Note that, the Kir6.1 defective mice were obtained from Professor Susumu Seino, School of Medicine of Kobe University (Miki T et al., Nature Medicine 2002, 8, 466-472).
To the WT mice and Kir6.1 defective mice administered with corticosterone, TP-014 (1 mg/kg) was administered via the oral route once a day for 2 weeks (chronic treatment). As a result, it was confirmed that a significant anxiety symptom acceleration improving effect was obtained. […]
The time until a mouse placed in a black box (dark place) feels anxiety to light and comes out of the box to a bright place) was measured. […]
In the cage for housing a mouse is filled with wood chip bedding and 20 marbles are placed such that a mouse can see them. […] The number of marbles buried and hidden in the wood chip bedding is counted. […]
Using the same test apparatus as in the light/dark test method, a mouse is placed in a dark place, and then, sound (treble) is produced for 30 seconds and thereafter electrical stimulation is given for 3 seconds. […] The immobility time of the mouse is measured. […]

In the case of `O=C(N[C@@H](c1ccccc1)[C@H]1[C@H]2C[C@@H]3C[C@](Cl)(C2)C[C@@]1(OC(=O)C(F)(F)F)C3)C(F)(F)F` [TP-014, (1S,2R,3S,5S,7S)-5-chloro-2-((R)-phenyl(2,2,2-trifluoroacetamido)methyl)adamantan-1-yl 2,2,2-trifluoroacetate], the outward potassium current (Kir6.2 channel) is reported as “suppressed”, the “attentional function (alternation, Y-maze)” value (APP23 mice) is reported as “significant attentional function improvement effect” and the “acceleration of anxiety-like symptom” value [1] is reported as “improve acceleration of anxiety-like symptom”.
